# According to patent US10617656B2, “Methods of increasing the cytotoxicity of chemotherapeutic agents with multisubstrate inhibitors of histone, protein-Lys, polyamine acetylation, and polyamine metabolism” (Vanderbilt University, priority 2010, dated 2020):
# Legend:
# H358 lung cancer cells [1] = experiment: [3H]-thymidine incorporation (DNA synthesis) assay in H358 cells; type: cell-based
# Protocol: (§1) (A) Structures of 1a, and the acetylated side chain of a lysine residue within the polypeptide chain of a protein targeted by the acetylating enzyme (R1 and R2 are the main chain elements on both sides of the lysyl residue). (B) [^3H]-thymidine incorporation into DNA of H358 cells pulsed for 6 hrs at three different time points after the addition of increasing concentrations of 1a, i.e., at 6-12 hrs (12 hr curve), at 18-24 hours (24 hr curve), or at 42-48 hrs (48 hr curve). Incorporation is represented as a percentage relative to control (untreated) cells. (C) Cell cycle analysis of propidium iodide-stained cells harvested at various times after addition of 50 μM 1a. % of cells in G1, S, and G2 represents the average of two independent profiles. (D) Western analysis of histone H3 lysine 9 acetylation, histone H3 lysine 56 acetylation, histone H3 lysine 9 methylation, and total histone H3, before “c” or at the indicated times after addition of 50 μM 1a. Each lane represents 60 μg cellular protein.
# (§2) Control cells were left untreated. […] Control cells were left untreated.
# Cells were either labeled immediately before treatment (starting DNA synthesis rate), or subjected to the indicated treatments and then pulsed on successive days until day 4. DNA synthesis is represented as the percent of starting DNA synthesis rate. Viability was determined for each treatment condition 24 hours post-start of treatment by the trypan blue exclusion assay, with percentages of viable cells indicated to the right of the graph.
# H358 cells (2,000/well) in 96-well plates were treated with 1, 10 or 50 μM of spd-1a, spd-2a, spd-3a, spm3, or spm2 for 12 hours. Triplicate wells of cells were pulsed 6 hours with 0.5 μCi [^3H]-thymidine (NEN, Boston Mass.) post-start of drug treatment, and harvested onto filter paper using a Brandel Harvester and subjected to scintillation counting. Untreated cells were pulsed from 0-6 hrs to establish the initial rate of incorporation.
# Cells were plated in 96-well plates (2000 cells per well to insure conditions for exponential growth for untreated cells over the time course of the experiment) and exposed to the following treatments: 1a (50 μM); camptothecin (Sigma, St Louis, Mo. 5 nM, 18 hours); cisplatin (Platinol, obtained through local pharmacies, 2 μM, 1 hour 15 minutes), 5-fluorouracil (5FU, Adrucil™, obtained through local pharmacies, 2 μM, 1 hour 15 minutes), Taxotere (provided by the late Dr. Pierre Potier, 5 nM, 18 hours). UVC treatment (40 J/m^2) using a Stratalinker™, Stratagene, La Jolla, Calif.) was carried using medium lacking phenol red. At 0-6 hr, 18-24 hr (day 1), 42-48 hr […], 66-72 hr (day 3), and 90-96 hr (day 4) post-start of treatment, triplicate wells were incubated with 0.5 μCi [^3H]-thymidine (NEN, Boston Mass.), harvested onto filter paper, and subjected to scintillation counting. Trypan blue exclusion assays for cell membrane integrity were carried out as known in the art.
# The present inventors used 96-well viability assays as described in Saadatmandi et al (Cancer Gene Therapy (2002) 9:[…]) to examine the effect of 1a on DNA synthesis in H358 cells, as well as the combined effects of 1a and chemotherapeutic agents. H358 cells were plated in 96-well plates at 3000 cells per well. […]
# [2] = test system: histone H3 lysine 9 acetylation in H358 cells; experiment: Western analysis of histone H3 acetylation/methylation in H358 cells; type: cell-based; conditions: 50 μM, 12 hours
# Protocol: as §1
# Each lane represents 175 μg cell lysate protein.
# One 6 cm culture dish of H358 cells per treatment was used. Cells were treated with 50 μM spm-2, spm-3, or spd-3a for 12 hours. Histones were extracted from cells in 0.2M H2SO4 (as described in Furuta, T., et al (2003) J. Biol. Chem. 278: 20303-20312), followed by SDS-PAGE and Western blotting. Blots were probed with anti-acetyl histone H3-lysine 9 (Upstate Biotechnology, Inc.)
# Cells were lysed by adding 1 mL of 0.2 M H2SO4. […]
# One 10-cm plate of H358 lung cancer cells (about 2×10^6 cells), grown in DMEM+10% Fetal bovine serum as described in reference, were treated for 24 hours with 50 μM 1a inhibitor. […] Treated cells and untreated (control) cells were harvested by lysing in buffer containing 10 mM Hepes pH 7.5, 100 mM NaCl, 300 mM sucrose, 3 mM MgCl2, 1 mM EDTA, 1 mM DTT, 0.5% Triton X-100, 1 mM PMSF, protease inhibitor pellet (Roche) and analyzed on 10% SDS-PAGE gels, followed by Western immunoblot analysis of total histone H3, methylated histone H3 (methylated on lysine 9), and acetylated histone H3 (acetylated on lysine 9). […]
# H358 lung cancer cells [3] = type: cell-based; conditions: CPT 5 nM 18 hours + 3a
# Protocol: as §2
# Cells were given fresh inhibitor on the first, second, and third days of treatment and viability was measured on the 4th day (i.e. 3 days post start of treatment). […]
# (A) Structure of Spd-3a. (B) Western analysis of histone H3K9-acetylation and total histone H3, measured in control, untreated H358 lung cancer cells “C” or in H358 cells incubated 12 hours in the presence of 50 μM Spd-2a or Spd-3a. Each lane represents 60 μg cellular protein. (C) [3H]-thymidine incorporation (counts per minute) into DNA of H358 cells during a 6 hour pulse beginning at 42 hours post-start of treatment. Treatments were as follows (bars 1-6 left to right): (1) control: no treatment; (2) CPT alone: 5 nM 18 hours; (3) 3a alone: 50 μM; (4-6) 3a+CPT: CPT (5 nm, 18 hours)+3a at indicated dose. After 18 hours, CPT was removed and medium was replaced with fresh medium containing Spd-3a at the indicated dose. Each bar represents the average of triplicates. (D) 3-day 96-well viability assay of H358 cells grown in the presence of increasing amounts of Spd-2a or Spd-3a, with or without CPT (5 nM 18 hours). […] Each data point represents the average of three wells.
# Date of exp: Jul. […] Date of exp: Sep.
# (§3) Cells were plated in 96-well plates at 2000 cells per well and treated with the indicated doses of spd-3a. Cell viability was measured by the MTS assay 3 days later.
# DLD-1 cells or H358 cells were plated in 96-well plates at 2000 cells per well and treated with the indicated doses of (A) spm-3 or (B) spm-2. (C) Cell viability was measured by the MTS assay 3 days later. Similar experiment using GT41 fibroblasts with spm2 or spm 3. Each assay point represents an average of duplicates. […]
# [4] = In vivo toxicity in nude mice (tail vein injection); conditions: 100 μl of 5 mM, approximately 10 mg/kg, twice per week for 3 weeks, 4 mice
# Protocol: They injected a second set of 4 mice with 100 μl of spd-3a (5 mM, approximately 10 mg/kg, or about 0.25 mM initial blood concentration), twice per week for 3 weeks.
# [5] = 96-well MTS viability assay, GT41F fibroblasts; type: cell-based, human; conditions: human, GT41F skin fibroblasts, spd-3a 1 μM, single agent, read-out: viability retained
# Protocol: as §3
# DLD-1 cells or H358 cells were plated in 96-well plates at 2000 cells per well and treated with the indicated doses of (A) spm-3 or (B) spm-2. (C) Cell viability was measured by the MTS assay 3 days later. Similar experiment using GT41 fibroblasts with spm2 or spm 3. Each assay point represents an average of duplicates.
# [6] = test system: endogenous HATs associated with solubilized chromatin; conditions: Parello et al. 1990; cited from earlier work
# MCF7 breast cancer cells = conditions: 72 hr assay; DFMO 100 μM, 5FU 2 μM, doxorubicin 100 nM
# Protocol: Viability was measured 3 days after the start of treatment and is expressed as a percentage of control (untreated) cell viability.
# Each point is average of triplicates. […]
# The present inventors carried out 96-well viability assays as we have previously described (Saadatmandi et al, Cancer Gene Therapy (2002) 9:830-9), in which MCF7 breast cancer cells were plated at 3000 cells per well. After overnight attachment, triplicate wells were treated with increasing doses of inhibitor 1a. Control wells were left untreated. After 3 days, cell viability was measured by the MTS assay, which measures the bioconversion of an uncolored substrate to a colored formazan derivative, and is proportional to cell number.
# DLD-1 colon cancer = experiment: Nude mouse subcutaneous DLD-1 tumor model; type: in vivo; conditions: DFMO only, intratumoral 2 mg/kg
# Protocol: Tumors were initiated By subcutaneous implantation of […] DLD-1 colon cancer cells. […] Tumors were measured and volumes calculated as in FIG. 14.
# Tumors were initiated by injecting 10^6 DLD-1 cells (from ATCC) per mouse (female nude mouse, 4-5 weeks, Harlan Labs) subcutaneously in the flank. (A) When the average tumor size reached 26 mm^3, animals were randomized into 2 groups (3 per group). One group was left untreated and served as the control (-●-). […] Tumors were measured bidirectionally at 2-3 day intervals and tumor volumes were calculated (v=½ L×w^2). A paired t-test was used to evaluate the significance of the differences between the two groups of animals. […] (B) Tumors were initiated as in part (A). When tumors reached an average size of about 30 mm^3, animals were randomized into three groups of 2 animals each. The control group (-●-) received no treatment. The DFMO group (-▪-) received intratumoral injections of DFMO (2 mg/kg) on days 1, 7, 9 (5 PM), and 2, 8, 10 (9 AM, 5 PM). […] Tumors were measured and volumes calculated as in part (A). A paired t-test was used to evaluate the significance of the difference between the curves.
# [7] = test system: MDA MB-435 breast cancer cells; experiment: 72 hr viability assay, MDA MB-435; type: cell-based; conditions: 72 hr assay; DFMO 100 μM, 5FU 2 μM, doxorubicin 100 nM
Compound,"inhibition of DNA synthesis (H358 lung cancer cells [1]; 1, 10 or 50 μM, 12 hours)","suppression of DNA synthesis in combination with camptothecin (H358 lung cancer cells [1]; CPT 5 nM 18 hours + 3a, pulse at 42 hours)",histone H3K9 acetylation (Western) [2],histone H3K9 acetylation (Western) ([2]; listed as spd-3a),suppression of 3-day cell viability in combination with camptothecin (H358 lung cancer cells [3]),signs of toxicity [4],"viability at 3 days, 1 µM [5] [%]","inhibitory effect on endogenous HATs, compared with Spd-2a [6]",effect as single agent on viability (MCF7 breast cancer cells),difference between control and treated tumor curves (DLD-1 colon cancer),effect as single agent on viability [7]
CC(=O)NCCSCC(=O)NCCCNCCCCN [3a],inhibit DNA synthesis,effective,nearly complete ablation,suppress histone acetylation,effective,no signs of distress or illness,~60,lower inhibitory effect than Spd-2a,,,
"NCCC[C@](N)(C(=O)O)C(F)F [DFMO, α-difluoromethylornithine]",,,,,,,,,ineffective,not significant,ineffective
